Laboratory results reported in patent US20260249027A1, “METERED DOSE INHALERS AND HIGH-DOSE SUSPENSIONS” (Kindeva Drug Delivery L.P., priority 2023, published 2026).

Assays:
Type in all cases: physicochemical
[1] = Through life dose consistency of nintedanib (free base) pMDI suspensions (USP <601>, apparatus A)
Description: (§1) In the following examples, dose consistency was determined by in vitro measurement of single actuation dose content at start, middle and end of pMDI unit life in line with U.S. Pharmacopeia (USP)<601>, using a flow rate of 28.3 L/min and apparatus A. Aerodynamic particle size distribution of the pMDI suspension aerosols was measured at start of unit life in line with U.S. Pharmacopeia (USP)<601> using a Next Generation impactor without pre-separator (apparatus 6) and a flow rate of 30 L/min.
(§2) Suspensions of micronized nintedanib (free base) in HFA-152a or HFO-1234ze(E) were prepared. A first set of suspensions included no ethanol. A second set of suspensions included 2% ethanol by weight. Each suspension included an amount of nintedanib (free base) to provide a nominal delivered dose (ex-valve) of 0.5 mg/actuation (7.94 mg/mL) or 1.0 mg/actuation (15.87 mg/mL). Two further suspensions including no ethanol were prepared which included an amount of nintedanib (free base) to provide a nominal delivered dose (ex-valve) of 2.0 mg/actuation (20.0 mg/mL).
(§3) In total, ten suspension pMDI formulations were prepared in triplicate with sufficient fill weight to provide 60 actuations. The pMDI formulations containing 0.5 mg/actuation (7.94 mg/mL) and 1.0 mg/actuation (15.87 mg/mL) of nintedanib (free base) were filled into Kindeva FEP coated canisters, crimped with a Kindeva 63-μL valve. The pMDI formulations containing 2.0 mg/actuation (20.0 mg/mL) of nintedanib (free base) were filled into Kindeva FEP coated canisters, crimped with a Kindeva 100-μL valve. Each pMDI unit was sonicated for at least 10 minutes to disperse the suspended drug and tested with a Kindeva actuator having an exit orifice diameter (EOD) of 0.4 mm.
The through-life (TL) dose consistency of each pMDI unit was determined by measuring the mean ex-actuator delivered dose in micrograms of nintedanib (free base) (N=3) at the start of life (SoL), middle of life (MOL) and end of life (EoL) of the unit.

[2] = Aerodynamic particle size measurement of nintedanib (free base) pMDI suspensions (Next Generation impactor)
Excerpt: In general, aerosols with mass median aerodynamic diameters (MMAD) of at least 1 μm but less than 5 μm in size are suitable for effective deep lung deposition for therapeutic effect. Herein, fine particle fraction (FPF) is defined as the percentage of the ex-actuator delivered API having a MMAD of less than 5 μm when tested in vitro. Herein, “ex-actuator” delivered dose is used to describe the amount of API delivered past the actuator of a pMDI. Therefore, an aerosol with a high FPF is typically suitable for deep lung deposition.
as §1, §2
as §3, with “mm. The mass median aerodynamic diameter (MMAD) and fine particle fraction (FPF) of each pMDI unit were measured by Next Generation cascade impaction (N=3) for each pMDI suspension.” for “mm.”

[3] = Additional through life dosing content uniformity of nintedanib suspension in HFO-1234ze(E), coated 63-microliter valve; conditions: nominal 1 mg/actuation (15.9 mg/mL), HFO-1234ze(E) without ethanol
Description: as §1
(§4) A suspension of nintedanib was prepared in HFO-1234ze(E). The concentration of nintedanib (15.9 mg/mL) was selected to provide a nominal actuation dose of 1 mg/actuation from a 63-microliter valve. The bottle emptier, tank, spring, and ferrule components of the valves were coated with a fluoropolymer coating according to the general process described in Example 2 of U.S. Patent Application Publication 2017/0152396 A1 (Jinks et al., hereby incorporated by reference). The formulation was mixed with a high shear mixer and cold filled into 16 mL FEP-coated canisters.
(§5) Average fine particle mass (<5 μm) was 434 μg/actuation.

[4] = Fine particle mass of nintedanib suspension in HFO-1234ze(E), coated 63-microliter valve; conditions: nominal 1 mg/actuation (15.9 mg/mL), HFO-1234ze(E) without ethanol
Description: as §1, §4, §5

[5] = nominal ex-valve 0.5 mg/act, HFA152a/2% EtOH (w/w), 63-μL valve
[6] = nominal ex-valve 0.5 mg/act, HFA152a, 63-μL valve
[7] = nominal ex-valve 0.5 mg/act, HFO1234ze(E)/2% EtOH (w/w), 63-μL valve
[8] = nominal ex-valve 0.5 mg/act, HFO1234ze(E), 63-μL valve
[9] = nominal ex-valve 1.0 mg/act, HFA152a/2% EtOH (w/w), 63-μL valve
[10] = nominal ex-valve 1.0 mg/act, HFA152a, 63-μL valve
[11] = nominal ex-valve 1.0 mg/act, HFO1234ze(E)/2% EtOH (w/w), 63-μL valve
[12] = nominal ex-valve 1.0 mg/act, HFO1234ze(E), 63-μL valve
[13] = nominal ex-valve 2.0 mg/act, HFA152a, 100-μL valve
[14] = nominal ex-valve 2.0 mg/act, HFO1234ze(E), 100-μL valve
[15] = nominal ex-valve 0.5 mg/act, HFA-152a/2% EtOH (w/w), 63-μL valve
[16] = nominal ex-valve 0.5 mg/act, HFA-152a, 63-μL valve
[17] = nominal ex-valve 0.5 mg/act, HFO-1234ze(E)/2% EtOH (w/w), 63-μL valve
[18] = nominal ex-valve 0.5 mg/act, HFO-1234ze(E), 63-μL valve
[19] = nominal ex-valve 1.0 mg/act, HFA-152a/2% EtOH (w/w), 63-μL valve
[20] = nominal ex-valve 1.0 mg/act, HFA-152a, 63-μL valve
[21] = nominal ex-valve 1.0 mg/act, HFO-1234ze(E)/2% EtOH (w/w), 63-μL valve
[22] = nominal ex-valve 1.0 mg/act, HFO-1234ze(E), 63-μL valve
[23] = nominal ex-valve 2.0 mg/act, HFA-152a, 100-μL valve
[24] = nominal ex-valve 2.0 mg/act, HFO-1234ze(E), 100-μL valve

effect of addition of ethanol on through unit life ex-actuator delivered dose consistency ([1]; 2% ethanol by weight, HFA-152a or HFO-1234ze(E)): did not always substantially improve
through unit life ex-actuator delivered dose consistency ([1]; HFA-152a or HFO-1234ze(E) with and without 2% ethanol by weight): relatively consistent
EoL mean delivered dose [1, 5]: 383.1 μg/act
MoL mean delivered dose [1, 5]: 364.6 μg/act
SoL mean delivered dose [1, 5]: 452.4 μg/act
TL mean delivered dose [1, 5]: 400.1 μg/act
EoL mean delivered dose [1, 6]: 335.9 μg/act
MoL mean delivered dose [1, 6]: 360.0 μg/act
SoL mean delivered dose [1, 6]: 468.9 μg/act
TL mean delivered dose [1, 6]: 388.3 μg/act
EoL mean delivered dose [1, 7]: 378.0 μg/act
MoL mean delivered dose [1, 7]: 385.9 μg/act
SoL mean delivered dose [1, 7]: 431.1 μg/act
TL mean delivered dose [1, 7]: 398.3 μg/act
EoL mean delivered dose [1, 8]: 380.5 μg/act
MoL mean delivered dose [1, 8]: 372.8 μg/act
SoL mean delivered dose [1, 8]: 401.8 μg/act
TL mean delivered dose [1, 8]: 385.0 μg/act
EoL mean delivered dose [1, 9]: 818.8 μg/act
MoL mean delivered dose [1, 9]: 773.1 μg/act
SoL mean delivered dose [1, 9]: 940.6 μg/act
TL mean delivered dose [1, 9]: 844.2 μg/act
EoL mean delivered dose [1, 10]: 890.2 μg/act
MoL mean delivered dose [1, 10]: 759.1 μg/act
SoL mean delivered dose [1, 10]: 1020.0 μg/act
TL mean delivered dose [1, 10]: 889.8 μg/act
EoL mean delivered dose [1, 11]: 818.5 μg/act
MoL mean delivered dose [1, 11]: 824.9 μg/act
SoL mean delivered dose [1, 11]: 926.7 μg/act
TL mean delivered dose [1, 11]: 856.7 μg/act
EoL mean delivered dose [1, 12]: 947.3 μg/act
MoL mean delivered dose [1, 12]: 962.2 μg/act
SoL mean delivered dose [1, 12]: 947.8 μg/act
TL mean delivered dose [1, 12]: 952.4 μg/act
EoL mean delivered dose [1, 13]: 1954.6 μg/act
MoL mean delivered dose [1, 13]: 1876.0 μg/act
SoL mean delivered dose [1, 13]: 2205.7 μg/act
TL mean delivered dose [1, 13]: 2012.2 μg/act
EoL mean delivered dose [1, 14]: 2282.4 μg/act
MoL mean delivered dose [1, 14]: 1884.0 μg/act
SoL mean delivered dose [1, 14]: 1561.8 μg/act
TL mean delivered dose [1, 14]: 1909.4 μg/act
MMAD values of aerosols, suitability ([2]; HFA-152a or HFO-1234ze(E), with and without ethanol, in-vitro): in an appropriate respirable range
Mean FPF [2, 15]: 26.9%
Mean MMAD [2, 15]: 3.65 μm
Mean FPF [2, 16]: 33.7%
Mean MMAD [2, 16]: 3.74 μm
Mean FPF [2, 17]: 36.8%
Mean MMAD [2, 17]: 3.50 μm
Mean FPF [2, 18]: 60.0%
Mean MMAD [2, 18]: 2.88 μm
Mean FPF [2, 19]: 18.0%
Mean MMAD [2, 19]: 4.74 μm
Mean FPF [2, 20]: 23.8%
Mean MMAD [2, 20]: 5.01 μm
Mean FPF [2, 21]: 29.3%
Mean MMAD [2, 21]: 4.20 μm
Mean FPF [2, 22]: 44.4%
Mean MMAD [2, 22]: 3.66 μm
Mean FPF [2, 23]: 16.7%
Mean MMAD [2, 23]: 7.47 μm
Mean FPF [2, 24]: 34.8%
Mean MMAD [2, 24]: 4.08 μm
average dose (through life dosing content uniformity) [3]: 950 μg/actuation
Average fine particle mass (<5 μm) [4]: 434 μg/actuation
SMILES: COC(=O)c1ccc2c(c1)NC(=O)/C2=C(\Nc1ccc(N(C)C(=O)CN2CCN(C)CC2)cc1)c1ccccc1 [nintedanib (free base), nintedanib]
FPF and MMAD without ethanol compared with corresponding suspensions with 2% ethanol by weight ([2]; HFA-152a or HFO-1234ze(E), all nominal doses): consistently produced greater FPFs and smaller MMADs
FPF and MMAD in HFO-1234ze(E) compared with corresponding suspensions in HFA-152a ([2]; with or without ethanol): consistently produced greater FPFs and smaller MMADs
Through life dosing content uniformity, trend [3]: no trending between start, middle, and end of life
